These results are taken from US20120251595A1, “EMULSION TEMPLATE METHOD TO FORM SMALL PARTICLES OF HYDROPHOBIC AGENTS WITH SURFACE ENRICHED HYDROPHILICITY BY ULTRA RAPID FREEZING” (BOARD OF REGENTS, THE UNIVERSITY OF TEXAS SYSTEM, priority 2009, published 2012).

In brackets after ≈: the same amount, converted by molar mass.

The nature of data set [1]: X-ray photoelectron spectroscopy (XPS) of particle surface composition. Format: physicochemical. As for the experimental part:
[…]
Powders containing ITZ were prepared according to procedures outlined in Examples 1, 2, 3, and 4 with the same formulations. The elemental composition of the particle surfaces was determined using X-ray photoelectron spectroscopy (XPS). […] Percent surface excess of ITZ was calculated by deducting 50% from the percent surface compositions of ITZ while percent surface excess of lecithin was calculated by deducting 25% from the percent surface compositions of lecithin. […]

A short description of data set [2]: Solubility and pKa of itraconazole. Type of data set: physicochemical. The settings on record: pH 1.2 dissolution media, simulated gastric fluid, thermodynamic from solid, crystalline ITZ, read-out: Equilibrium solubility Ceq. From the text:
This study compares the effectiveness of fine emulsion templating and co-solvent approaches with the URF process to enhance the wetting and solubility of the model drug, itraconazole (ITZ). Itraconazole (ITZ) is a weakly basic broad-spectrum triazole antifungal agent indicated in the treatment of both local and systemic fungal infections; however, successful treatment of infections is often complicated by its low aqueous solubility resulting in variable absorption and plasma concentration. Classified as a BCS class II compound, ITZ has a strongly pH dependent solubility (pKa˜3.7) with reported solubilities in acidic and neutral media of approximately 4 μg/mL and 1 ng/mL, respectively. While limited by poor aqueous solubility, the highly lipophilic nature of the compound allows for high permeability of intestinal membranes. […]

The conditions of data set [3]: cited from earlier work.

One may read the pKa as the pH at which an ionisable group is half protonated. For `CCC(C)n1ncn(-c2ccc(N3CCN(c4ccc(OCC5COC(Cn6cncn6)(c6ccc(Cl)cc6Cl)O5)cc4)CC3)cc2)c1=O` (stereo not shown) [ITZ, itraconazole], in data set [1], the “Mass Concentration Chlorine, SOL” value is reported as 9.54% and the “Surface composition ITZ, SOL” value was 100.0%. In data set [2], the solubility thermodynamic is 5 µg/mL (≈ 7.09 µM). For the same compound, the pKa in data set [3] is listed as approximately 3.7.
